Measurements from patent US20110313672A1, “CELLULAR ANTIOXIDANT ACTIVITY (CAA) ASSAY” (CORNELL UNIVERSITY, priority 2007, published 2011).
Read-outs that look alike come from different tables or passages of the source.

Assays:
HepG2 cells [1] = experiment: Cellular antioxidant activity (CAA) assay: inhibition of peroxyl radical-induced DCFH oxidation; type: cell-based, human; conditions: for EC50: Homo sapiens; for cellular antioxidant activity, result in words: no PBS wash protocol
Description: Cells (e.g., human hepatocellular carcinoma cells; HepG2) are seeded at a density of e.g., 6×10^4/well on a 96-well microplate in 100 μL growth medium/well. It is preferred that only the inside wells of e.g., a 96-well microplate are used for the assay, since the outer wells have increased variation compared to that of the inner wells. Twenty-four hours after seeding the growth medium is removed and the wells are washed with PBS. Triplicate wells are treated for 1 h with 100 μL of a test compound (e.g., pure phytochemical compounds or fruit extracts) plus 25 μM DCFH-DA dissolved in treatment medium.
600 μM ABAP is then applied to the cells in 100 μL HBSS and the 96-well microplate is placed into a plate reader e.g., Fluoroskan Ascent FL plate-reader (ThermoLabsystems, Franklin, Mass.) at 37° C. Emission at 538 nm is measured with excitation at 485 nm, for example every 5 min for 1 h. Each plate should include triplicate control and blank wells: control wells contain cells treated with DCFH-DA and oxidant; blank wells contain cells treated with dye and HBSS without oxidant.
A test compound is assayed in multiple wells of e.g., a 96-well cell culture plate. Some wells are washed with 100 μL of phosphate-buffered saline (PBS) prior to the addition of ABAP, while other wells were not washed prior to the addition of ABAP. It was noted that the measured antioxidant activity of some fruit extracts (e.g., blueberries) was different when a PBS wash was used compared to when there was no PBS wash (see Table 2; FIGS. 3 and 4). This is likely due to non-specific binding of certain antioxidant compounds to the outer membrane, or a reduced uptake of the compound, thus the ratio of antioxidant activity values obtained with a PBS wash compared to a non-PBS wash indicates the bioavailability of the test compound. In order to accurately measure the intracellular antioxidant activity of a test compound, a PBS wash prior to the addition of a peroxyl initiator (e.g, ABAP) is necessary. The values obtained for cells assayed using a PBS wash should be compared to values obtained for the same cells assayed without a PBS wash. One of skill in the art can plan and perform experiments on a test compound in the presence and absence of a PBS wash, in order to accurately assess the intracellular antioxidant capacity of the test compound.
After blank subtraction from the fluorescence readings, the area under the curve of fluorescence versus time is integrated to calculate the cellular antioxidant activity (CAA) value at each concentration of pure phytochemical compound or fruit extract as follows:
where ∫SA is the integrated area under the sample fluorescence versus time curve and ∫CA is the integrated area from the control curve. The median effective dose (EC50) was determined for the pure phytochemical compounds and fruit extracts from the median effect plot of log (fa/fu) vs. log (dose), where fa is the fraction affected and fu is the fraction unaffected by the treatment. To quantify intra-experimental variation, the EC50 values are stated as mean±SD for triplicate sets of data obtained from the same experiment. Inter-experimental variation is obtained for some representative pure phytochemical compounds and fruit extracts by averaging the fluorescence values from triplicate wells in each trial to obtain one EC50 value per experiment and calculating the mean±SD for at least four trials. In each experiment, a standard is used, for example quecetin, thus permitting the cellular antioxidant activities for a test compounds to be expressed as μmol quercetin equivalents (QE)/100 μmol compound. Fruit extracts are expressed as μmol QE/100 g fruit. In order to compare the antioxidant quality of different fruits, cellular antioxidant activity (CAA) is also calculated as μmol QE/100 μmol total phenolics.
Human hepatocellular carcinoma HepG2 cells were seeded at a density of 6×10^4/well on a 96-well microplate in 100 μL growth medium/well. […]

in vitro = conditions: human
Description: (§1) Briefly, HepG2 cells are seeded at 4×10^4/well on a 96-well plate in 100 μL growth medium and incubated for 24 h at 37° C. The medium is removed and the cells are washed with PBS. Treatments of fruit extracts or antioxidant compounds in 100 μL treatment medium (Williams' Medium E supplemented with 2 mM L-glutamine and 10 mM Hepes) are applied to the cells and the plates are incubated at 37° C. for 24 h. The treatment medium is removed and the cells are washed with PBS. A volume of 50 μL/well methylene blue staining solution (98% HBSS, 0.67% glutaraldehyde, 0.6% methylene blue) is applied to each well and the plate is incubated at 37° C. for 1 h.
(§2) Excess dye is removed by immersing the plate in fresh deionized water until the water appears clear. The excess water should be tapped out of the wells and the plate allowed to air-dry briefly before addition of 100 μL elution solution (49% PBS, 50% ethanol, 1% acetic acid) to each well. The microplate is then placed on a bench-top shaker for 20 minutes to allow uniform elution. The absorbance is read at 570 nm with blank subtraction using, for example a MRX II DYNEX spectrophotometer (DYNEX Inc., Chantilly, Va.). Concentrations of pure compounds or fruit extracts that decrease the absorbance by more than 10% when compared to the control are considered to be cytotoxic.
(§3) Cytotoxicity was measured using the method of Oliver et al. (31) with modifications by our laboratory (32). […] The medium was removed and the cells were washed with PBS. Treatments of fruit extracts or antioxidant compounds in 100 μL treatment medium (Williams' Medium E supplemented with 2 mM L-glutamine and 10 mM Hepes) were applied to the cells and the plates were incubated at 37° C. for 24 h. The treatment medium was removed and the cells were washed with PBS. A volume of 50 μL/well methylene blue staining solution (98% HBSS, 0.67% glutaraldehyde, 0.6% methylene blue) was applied to each well and the plate was incubated at 37° C. for 1 h. The dye was removed and the plate was immersed in fresh deionized water three times, or until the water was clear. The water was tapped out of the wells and the plate was allowed to air-dry briefly before 100 μL elution solution (49% PBS, 50% ethanol, 1% acetic acid) was added to each well. The microplate was placed on a bench-top shaker for 20 minutes to allow uniform elution. The absorbance was read at 570 nm with blank subtraction using the MRX II DYNEX spectrophotometer (DYNEX Inc., Chantilly, Va.). Concentrations of pure compounds or fruit extracts that decreased the absorbance by more than 10% when compared to the control were considered to be cytotoxic.
(§4) The median cytotoxic concentration (CC50) was calculated for each fruit.
(§5) Briefly, HepG2 cells were seeded at 4×10^4/well on a 96-well plate in 100 μL growth medium and incubated for 24 h at 37° C. The medium was removed, and the cells were washed with PBS. Flavonoids in 100 μL growth medium were applied to the cells, and the plates were incubated at 37° C. for 24 h. The medium was removed, and the cells were washed with PBS before a volume of 50 μL/well methylene blue staining solution (98% HBSS, 0.67% glutaraldehyde, 0.6% methylene blue) was applied to each well, and the plate was incubated at 37° C. for 1 h. The dye was removed, and the plate was immersed in fresh deionized water until the water was clear. The water was tapped out of the wells, and the plate was allowed to air-dry briefly before 100 μL of elution solution (49% PBS, 50% ethanol, 1% acetic acid) was added to each well. The microplate was placed on a benchtop shaker for 20 min to allow uniform
(§6) elution. The absorbance was read at 570 nm with blank subtraction using the MRX II Dynex spectrophotometer (Dynex Inc., Chantilly, Va.). The median cytotoxic concentration (CC50) was calculated for each flavonoid.

HepG2 cells [2] = experiment: in vitro
Description: as §1, §2, §3, §4, §5, §6

[3] = HepG2, Example 1, Table 1, PBS wash, pure phytochemical compounds, mean ± SD, n=3, read-out: EC50 for inhibition of peroxyl radical-induced DCFH oxidation
[4] = HepG2, Example 1, Table 1, no PBS wash, pure phytochemical compounds, mean ± SD, n=3, read-out: EC50 for inhibition of peroxyl radical-induced DCFH oxidation

| EC50 (HepG2 cells [1]; [3]) [µM] | EC50 (HepG2 cells [1]; [4]) [µM] | EC50 (HepG2 cells [1]; HepG2, Example 3, Table 7, PBS wash, flavonoids, mean ± SD, n=3, read-out: EC50) [µM] | EC50 (HepG2 cells [1]; HepG2, Example 3, Table 7, no PBS wash, flavonoids, mean ± SD, n=3, read-out: EC50) [µM] | EC50 (HepG2 cells [1]; HepG2, Example 3, text, no PBS wash, read-out: EC50) [µM] | SMILES | CAA (HepG2 cells [1]; Example 3, Table 7, no PBS wash) | CC50 at 24 h (in vitro) [µM] | Cytotoxicity (cytotoxic concentration) (HepG2 cells [2]; human, 24 h) [µM] | cellular antioxidant activity, result in words (HepG2 cells [1]) | Cytotoxicity (cytotoxic concentration) (HepG2 cells [2]; Example 1, dose at which the cell number is reduced by more than 10% after 24 h treatment) [µM] |
| --- | --- | --- | --- | --- | --- | --- | --- | --- | --- | --- |
| > 600 | > 200 | > 800 | 457 ± 47 | 457 ± 47 | Oc1cc(O)c2c(c1)O[C@H](c1ccc(O)c(O)c1)[C@H](O)C2 [Epicatechin, (−)-epicatechin] | 1.9 ± 0.2 μmol of QE/100 μmol | > 1000 | >500 |  |  |
| > 25 | > 25 |  |  |  | O=C(CCc1ccc(O)cc1)c1c(O)cc(O)cc1O [Phloretin, phloretin] |  |  | 25 | activity only at doses much higher than their cytotoxic concentrations |  |
| > 40 | > 40 |  |  |  | Oc1ccc(C=Cc2cc(O)cc(O)c2)cc1 [Resveratrol, resveratrol] |  |  |  | activity only at doses much higher than their cytotoxic concentrations | 40 |
